# Key:
# [1] = system: J774 macrophages; assay: Co-culture assay: Specific Chol Efflux from 3H-cholesterol-labeled J774 macrophages; type: cell-based, murine
# Excerpt: (§1) Total Chol Efflux is the sum of co-culture medium counts plus hepatic counts, while Total Chol Uptake is defined as hepatic counts only. Both Chol Efflux and Chol Uptake are expressed as % of total counts in the system. Background values, corresponding to basal co-culture medium (without acceptors), can be subtracted from the corresponding values in presence of acceptors to obtain Specific Chol Efflux (%) and Specific Chol Uptake (%) values.
# (§2) Simultaneous Measurement of Cholesterol Flux Between Cholesterol-Loaded, ^3H-Cholesterol-Labeled J774 Cells and Target HepG2 Hepatocytes in a Transwell-Clear™ Insert.
# (§3) J774 cells were seeded at a density of 8,000 cells per cm^2 in 1 mL of Dulbecco's minimal essential medium (DMEM, high glucose) and supplemented with 10% fetal bovine serum (FBS) and 1% penicillin/streptomycin in standard 12-well (3.8 cm^2) flat bottom plates (Corning).
# (§4) Loaded plates were pre-incubated in an incubator at 37° C. with 5% CO2 for 30-45 min without cells in order to improve later cell attachment and maximize cell spreading on the insert membrane during cell culture. After pre-incubation, the media was removed. The wells of the Transwell plates were then filled with 1.5 mL of EMEM (low glucose) supplemented with 10% FBS and 1% penicillin/streptomycin and HepG2 cells were seeded at a density of 60,000 cells per cm^2 in 0.5 mL EMEM (low glucose) supplemented with 10% FBS and 1% penicillin/streptomycin on each insert.
# (§5) Following seeding in plates or inserts, both cell types were placed in a cell incubator at 37° C. filled with humidified air and 5% CO2 and incubated for 72 h.
# (§6) Following the 72-hour incubation and achieving a J774 cell confluence of 70-80%, the J774 cells were washed with 1 mL per well of PBS at 20° C. After the wash, 1 mL of Labeling Medium was added to each well. The Labeling Medium contained: 1% FBS, 1% penicillin/streptomycin, 2 μCi/mL of ^3H-cholesterol (Perkin-Elmer, NET139005MC), 50 μg protein/mL of acetylated LDL (acLDL) and DMEM (high glucose). The cells were then incubated for 24 hr at 37° C. in a cell incubator filled with humidified air and 5% CO2. One plate served as a reference to determine the labeled-cholesterol level in cells prior to co-culture assay.
# (§7) Following the 72-hour incubation, the culture medium was removed from HepG2 cells grown on the insert membrane and replaced with 2 mL of fresh EMEM (low glucose) supplemented with 10% FBS and 1% penicillin/streptomycin. The cells were then incubated for an additional 24 hours at 37° C. in an incubator filled with humidified air and 5% CO2.
# (§8) Following the 24-hour incubation of J774 cells, the labeling medium was removed from the plates and discarded. The cells were then washed with 1 mL of phosphate-buffered saline (PBS) at 20° C. and replaced with Equilibration Medium containing: DMEM (high glucose), 0.2% Bovine Serum Albumin (BSA) (low endotoxin, fatty acid-free, Sigma, cat. #A8806) and the appropriate Treatment under study. The J774 culture was then incubated for 24 hours.
# (§9) J774 cells ongoing the ^3H-cholesterol equilibration phase and/or HepG2 cells before co-culture can be treated by various means. Pharmacological agent is diluted in the appropriate culture medium with 0.2% BSA and vehicle (solvent) is tested in parallel. Modulation of gene expression is also accomplished at this step, by transfection of siRNA according to the manufacturer's protocol, and a control non-silencing RNA is tested in parallel.
# After 24 hour of incubation, equilibration medium from J774 culture and culture medium from HepG2 cells were discarded. Cells were washed with 1 mL (J774) or 2 mL (HepG2) of PBS at 20° C. and the wash medium discarded. Transwell inserts containing HepG2 cells were removed and transferred to each well containing the J774 culture. 2 mL of co-culture media (DMEM without phenol red, high glucose, 4.5 g/L) were added to each well. The resulting co-culture system was incubated in a cell incubator at 37° C. for 24 hours.
# [2] = system: HepG2 hepatocytes; assay: Co-culture assay: Specific Chol Uptake into HepG2 hepatocytes on insert membrane; type: cell-based, human; settings: for reduction of hepatic Specific Chol Uptake: 10 μM, HepG2 overnight and during co-culture
# Excerpt: as §1, §2, §3
# as §4, with “Transwell-Clear™ 12-well plates (Corning, cat. #3642), each consisting of 12 cylindrical cell culture inserts (1.12 cm^2 insert/well) were bathed with 2 mL Eagle's minimal essential medium (EMEM, low glucose) distributed as follows: 0.5 mL in the insert and 1.5 mL in the well. Loaded” for “Loaded”
# as §5, §6, §7, §8, §9
# After 24 hour of incubation, equilibration medium from J774 culture and culture medium from HepG2 cells were discarded. Cells were washed with 1 mL (J774) or 2 mL (HepG2) of PBS at 20° C. and the wash medium discarded.
# [3] = J774 pre-treated overnight 10 μM, acceptors HS and DHS, vs vehicle DMSO
# [4] = 24 h co-culture, one-site non-linear regression
# [5] = purified acceptor, 24 h co-culture, one-site non-linear regression
# [6] = 10 nM in co-culture medium for 24 h, acceptor complete human serum
molecule,measurement,setting,value
O=S(=O)(c1ccccc1)N(CC(F)(F)F)c1ccc(C(O)(C(F)(F)F)C(F)(F)F)cc1 [TO901317],effect on Specific Chol Efflux,[1]; [3],increased
same,effect on Specific Chol Uptake,[2]; [3],increased
CC[C@H](C)C(=O)O[C@H]1CCC=C2C=C[C@H](C)[C@H](CC[C@@H]3C[C@@H](O)CC(=O)O3)[C@H]21 [mevastatin],effect on Specific Chol Efflux,"[1]; HepG2 pre-treated overnight 25 μM, acceptor human serum",did not change
same,effect on Chol Efflux to human serum,"[1]; hepatocytes pre-treated 10 μM, acceptor human serum",no effect
same,effect on Specific Chol Uptake,"[2]; HepG2 pre-treated overnight 25 μM, acceptor apoB-depleted serum",reduced effect
same,effect on Specific Chol Uptake,"[2]; HepG2 pre-treated overnight 25 μM, acceptor complete human serum",significantly increased
same,effect on Chol Uptake,"[2]; hepatocytes pre-treated 10 μM, acceptor apoB-depleted serum, compared to complete serum",reduced effect
same,effect on hepatic Chol Uptake,"[2]; hepatocytes pre-treated 10 μM, acceptor complete human serum",increased
CCOC(=O)N1c2ccc(C(F)(F)F)cc2[C@@H](N(Cc2cc(C(F)(F)F)cc(C(F)(F)F)c2)C(=O)OC)C[C@H]1CC [torcetrapib],effect on Specific Efflux,"[1]; 10 μM, HepG2 overnight and during co-culture, acceptors HS and DHS",did not affect
same,reduction of hepatic Specific Chol Uptake,[2]; acceptor apoB-depleted serum,21%
same,reduction of hepatic Specific Chol Uptake,"[2]; acceptor apoB-depleted serum, listed as Torcetrapib",reduced
same,reduction of hepatic Specific Chol Uptake,[2]; acceptor complete serum,31%
same,reduction of hepatic Specific Chol Uptake,"[2]; acceptor complete serum, listed as Torcetrapib",reduced
"ApoA-I: human apolipoprotein A-I, purified, used as Chol acceptor","Bmax (maximal flux), Specific Efflux",[1]; [4],15.9 ± 0.9%
same,Specific Chol Efflux compared to LDL,"[1]; acceptor at 100 μg/ml, 24 h co-culture",higher
same,"kA (affinity constant), Specific Efflux",[1]; [5],7.2 ± 1.4 μg protein/mL
same,"Bmax (maximal flux), Specific Uptake",[2]; [4],0.83 ± 0.03%
same,"kA (affinity constant), Specific Uptake",[2]; [5],7.0 ± 1.0 μg protein/mL
PCSK9 D374Y: purified human PCSK9 gain-of-function D374Y mutant protein,effect on Specific Chol Efflux,[1]; [6],no effect
same,effect on Specific Chol Efflux,"[1]; 10 nM in co-culture medium for 24 h, acceptor complete human serum, listed as purified PCSK9 mutant",did not influence
same,effect on Specific Chol Uptake,[2]; [6],markedly reduced

# — patent publication US11840707B2, “Co-culture system and method for in vitro assessment of reverse cholesterol transport” (INSTITUT DE CARDIOLOGIE DE MONTREAL, priority 2016, dated 2023)
